Experimental data taken from patent US7189691B2, “Methods and compositions for treating leukemia” (The Administrators of the Tulane Educational Fund, priority 2004, dated 2007).

How the values were obtained:
B1 leukemia cells = assay: CaspACE FITC-VAD-FMK caspase assay; format: cell-based; details: 50 μg peptide, 24 h / overnight
Protocol: To examine an additional marker of apoptosis, apoptosis assays utilizing the FITC-labeled VAD-FMK caspase substrate, CaspACE FITC-VAD-FMK (Promega) were performed according to the manufacturer's instructions. Caspase activation in individual cells was monitored by binding of the caspase substrate, followed by flow cytometry analysis. Briefly, B1 leukemia cells were suspended in RPMI 1640+10% FCS at a concentration of 5×10^5 cells/ml and treated with 50 μg PFWT, PFmut or an equal volume of DMSO. Following an overnight incubation at 37° C., the fluorescent caspase substrate CaspACE FITC-VAD-FMK marker was added to a final concentration of 10 μM and incubated for 20 minutes at 37° C. under light protective conditions. The cells were pelletted, washed, and resuspended in PBS. Cells were then analyzed by flow cytometry using a Becton Dickinson FACS Vantage flow cytometer. A 488 nm wavelength argon-ion laser beam was used for excitation, and the emission was measured using a 530 nm filter.

AF4-AF9 interaction = target: T1, AF4-AF9 interaction (Homo sapiens, UniProt P42568); assay: GST pull-down assay, GST-AF4(749-775) and biotinylated AF9; format: binding
T1 construct: made in house; host or cells: GST-AF4 from E. coli; AF9 by coupled in vitro transcription/translation (Promega)
T1 sequence (P42568 211-568): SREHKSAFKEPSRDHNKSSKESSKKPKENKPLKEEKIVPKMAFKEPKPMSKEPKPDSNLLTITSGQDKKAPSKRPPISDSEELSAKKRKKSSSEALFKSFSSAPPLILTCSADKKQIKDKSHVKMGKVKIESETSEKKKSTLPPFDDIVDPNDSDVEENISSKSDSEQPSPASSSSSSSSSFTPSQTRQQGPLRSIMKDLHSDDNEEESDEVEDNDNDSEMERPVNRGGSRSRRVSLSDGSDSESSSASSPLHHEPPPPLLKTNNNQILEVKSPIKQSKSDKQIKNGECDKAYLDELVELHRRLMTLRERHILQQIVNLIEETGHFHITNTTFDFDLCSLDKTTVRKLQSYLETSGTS
Protocol: To determine if the synthetic peptide could disrupt the AF4-AF9 interaction in vitro, and to determine if the peptide disrupted other binding events with AF9, the following assay was performed. In additional to AF4, the carboxy-terminus of AF9 binds at least two other proteins, the Polycomb protein MPc3 and mBCoR, the mouse homolog of the human BCL-6 corepressor protein (Srinivasan 2003 and Hemenway 2001, both cited above). Using a yeast three hybrid assay similar to that described in Example 1, it was previously shown that mBCoR and FMR2 (an AF4 homolog) can simultaneously bind AF9. […] The sequences of human AF4 and AF9 and murine MPc3 and BCoR can be found in the NCBI database under Accession Nos. P51825, P42568, Q9QXV1, and AAN85318, respectively, incorporated by reference herein.
Recombinant proteins consisting of glutathione-S-transferase (GST) fused to either (a) amino acids 749–775 of human AF4 SEQ ID NO: 107, (b) amino acids 202–362 of MPc3 SEQ ID NO: 108 or (c) amino acids 925–1759 of mBCoR SEQ ID NO: 109 were isolated from E. coli. These fusion proteins were immobilized on 50 μl glutathione agarose matrix. (i.e., glutathione Sepharose™ beads). Biotinylated AF9 was synthesized by coupled in vitro transcription and translation (Promega) of a Hind III restriction fragment of human AF9 cDNA. This fragment encodes the C-terminal 368 aa of AF9 SEQ ID NO: 114.
Binding of biotinylated AF9 was performed as previously described (Srinivasan, R. S., et al., 2003, cited above; Hemenway, C. S., et al., Oncogene 2001 20: 3798–3805). Briefly, 25 μl of crude AF4 protein extract was immobilized on glutathione coated 96 well plates (Sigma) followed by extensive washing with TBS containing 0.05% Tween (TBST). […]
After extensive washing with TBST, proteins were resolved by SDS-PAGE and transferred to nitrocellulose. […] Alkaline phosphatase activity was measured by determining the optical density of the samples at 405 nm with a plate spectrophotometer. […]

RS4;11 = assay: Annexin-V/PI binding assay (flow cytometry); format: cell-based; details: RS4;11, 50 μg/ml
Protocol: (§1) To test the possibility that growth inhibition of t(4;11) leukemia cells exposed to PFWT is the result of apoptotic cell death, annexin-V labeling of the cell membrane of the leukemic cells examined in Example 5 was used to assess apoptosis as follows (Koopman, G., et al., Blood 1994 84: 1415–1420.). Annexin V binding assays were carried out using a Vibrant™ apoptosis kit (Molecular Probes). […] For annexin V-propidium iodide (PI) staining, cells were harvested, washed once with PBS and resuspended in 100 μl annexin binding buffer. 5 μl annexin V conjugated to Alexa Fluor 488 and 2 μl of 100 μg/ml PI were added to the cell suspension and incubated at room temperature for 15 minutes. The cells were then washed once in annexin binding buffer and resuspended in 400 μl annexin binding buffer. These samples were then analyzed by flow cytometry using Coulter benchtop flow cytometer. The cells were excited by a 488 nm wavelength laser beam and the emission was measured using a 530 nm filter for annexin V and a 575 nm filter for PI.

MV4-11 = assay: Annexin-V/PI binding assay (flow cytometry); format: cell-based; details: MV4-11, 50 μg/ml
Protocol: as §1

MOLT-4 = assay: Annexin-V/PI binding assay (flow cytometry); format: cell-based; details: MOLT-4, 50 μg/ml
Protocol: as §1

B1 cells = assay: Cell cycle analysis (PI DNA staining, flow cytometry); format: cell-based; details: for proportion of cells in G1 / proportion of cells in G2 / proportion of cells in S: G1:S:G2 ratio
Protocol: Leukemia cells were subjected to cell cycle analyses using a Cellular DNA flow cytrometric analysis kit (Roche) according to manufacturers' protocols to determine if PFWT might also induce cell cycle arrest. B1 cells were treated with peptides as outlined above and fixed. For DNA staining, cells were harvested and washed and resuspended with PBS at a concentration of 10^6 cells/ml. 1 unit/ml of RNase and 50 μg/mI of PI was added to this suspension and incubated at 37° C. for 1 hr and analyzed by flow cytometry using Coulter benchtop flow cytometer.

Row | SMILES | caspase activation (fluorescence intensity) (B1 leukemia cells) | AF4-AF9 binding (AF4-AF9 interaction; peptide 10 μg/ml, western blot) | % Total apoptotic cells (RS4;11) [%] | % early apoptotic cells (RS4;11) [%] | % Total apoptotic cells (MV4-11) [%] | % early apoptotic cells (MV4-11) [%] | % Total apoptotic cells (MOLT-4) [%] | % early apoptotic cells (MOLT-4) [%] | sub-G1 population (of all events) (B1 cells) [%] | proportion of cells in G1 (B1 cells) | proportion of cells in G2 (B1 cells) | proportion of cells in S (B1 cells) | AF4-AF9 binding (AF4-AF9 interaction; peptide 100 μg/ml)
1 | CC[C@H](C)[C@H](NC(=O)[C@H](CCCCN)NC(=O)[C@@H](NC(=O)[C@H](Cc1c[nH]c2ccccc12)NC(=O)[C@H](CC(C)C)NC(=O)[C@H](CCCCN)NC(=O)[C@H](CCCCN)NC(=O)[C@H](Cc1c[nH]c2ccccc12)NC(=O)[C@H](CCCCN)NC(=O)[C@H](CCSC)NC(=O)[C@H](CCCNC(=N)N)NC(=O)[C@H](CCCNC(=N)N)NC(=O)[C@H](CC(N)=O)NC(=O)[C@H](CCC(N)=O)NC(=O)[C@H](Cc1ccccc1)NC(=O)[C@H](Cc1c[nH]c2ccccc12)NC(=O)[C@H](CCCCN)NC(=O)[C@@H](NC(=O)[C@H](CCC(N)=O)NC(=O)[C@@H](N)CCCNC(=N)N)[C@@H](C)CC)C(C)C)C(=O)N[C@@H](CC(=O)O)C(=O)N[C@@H](CC(C)C)C(=O)N[C@@H](CC(=O)O)C(=O)N[C@@H](CC(C)C)C(=O)N[C@@H](CC(C)C)C(=O)N[C@@H](CO)C(=O)N[C@@H](CCCNC(=N)N)C(=O)N[C@H](C(=O)N1CCC[C@H]1C(=O)O)C(C)C [PFWT] | caspases are activated | completely blocks AF4-AF9 binding | 34.64 | 26.18 | 45.3 | 28.42 | 18.8 | 11.64 | 51 | 47 | 8 | 45 | –
2 | CC[C@H](C)[C@H](NC(=O)[C@H](CCC(N)=O)NC(=O)[C@@H](N)CCCNC(=N)N)C(=O)N[C@@H](CCCCN)C(=O)N[C@@H](Cc1c[nH]c2ccccc12)C(=O)N[C@@H](Cc1ccccc1)C(=O)N[C@@H](CCC(N)=O)C(=O)N[C@@H](CC(N)=O)C(=O)N[C@@H](CCCNC(=N)N)C(=O)N[C@@H](CCCNC(=N)N)C(=O)N[C@@H](CCSC)C(=O)N[C@@H](CCCCN)C(=O)N[C@@H](Cc1c[nH]c2ccccc12)C(=O)N[C@@H](CCCCN)C(=O)N[C@@H](CCCCN)C(=O)N[C@@H](CC(C)C)C(=O)N[C@@H](Cc1c[nH]c2ccccc12)C(=O)N[C@@H](CCC(=O)O)C(=O)N[C@@H](CCCCN)C(=O)N[C@@H](CO)C(=O)N[C@@H](CC(=O)O)C(=O)N[C@@H](CC(C)C)C(=O)N[C@@H](CC(=O)O)C(=O)N[C@@H](CC(C)C)C(=O)N[C@@H](CC(C)C)C(=O)N[C@@H](CO)C(=O)N[C@@H](CCCNC(=N)N)C(=O)N[C@H](C(=O)N1CCC[C@H]1C(=O)O)C(C)C [PFmut] | little caspase activation can be detected | does not interfere with AF4-AF9 binding | 7.22 | 1.36 | 23.16 | 8.26 | 6.64 | 1.36 | – | 52 | 8 | 40 | binding was still apparent
